Reference: paper PMC10059125, “The Pharmaceutical Formulation Plays a Pivotal Role in Hydroxytyrosol Pharmacokinetics” (Pharmaceutics, 2023)
Where two headings read alike, the source gives them in different places. Each block holds one compound with its values, some of them ahead of it.

What was measured:
[1] = parameters: method as in doi:10.1016/j.foodchem.2011.07.101; details: after chronic or acute consumption of olive leaf supplements, 55 healthy young adults; cited from earlier work
[2] = Urinary excretion of DOPET and metabolites in healthy volunteers after oral enteric-coated capsules; format: in vivo, human; details: for cumulative metabolites distribution in urine, mean relative area percentage with respect to all identified and unidentified compounds: 24 h urine, oral 15 mg (97.3 µmole) DOPET; for mean peak in urine: approximately 6 h after oral 15 mg (97.3 µmole) DOPET, n = 20
Method: (§1) The study protocol, approved by the local ethics committee (Register Protocol No. 146 17/05/2018), was conducted on 20 healthy Caucasian volunteers, aged 25–60 years with BMI ranging from 19 and 25 kg/m^2, enrolled at the University hospital facility of the Clinical Research Unit of the Department of Biomedicine and Prevention, University of Tor Vergata (Rome, Italy). Two enteric-coated capsules, each containing 7.5 mg of DOPET, were administered orally. All subjects fulfilled the following eligibility criteria: non-smokers, non-alcoholics, healthy diet, and no drugs during the experimental procedure. The administration was preceded by a 4-day washout with polyphenols and an alcoholic-free diet to avoid any interference, and by a 10-h fasting period. The study was conducted in compliance with the Declaration of Helsinki, and the selected subjects agreed to the procedure by reviewing and signing the relevant, informed consensus.
Urine samples were collected at baseline (T0) and, after the intervention, at the following mean times: 3.45, 4.18, 5.14, 6.16, 8.19, 12, and 24 h in sterile, dark polystyrene tubes (100 mL) with screw caps with 10% L-ascorbic acid as a chemical preservative. Both plasma and urine samples were immediately shipped in dry ice to the Department of Chemical, Biological, Pharmaceutical and Environmental Sciences, University of Messina (Italy) for chemical analyses, stored at −80 °C and processed within 48 h.
(§2) Plasma and urine samples were processed, before and after hydrolysis, according to Alemán-Jiménez et al., with some modifications. Briefly, plasma and urine samples were thawed at room temperature and centrifuged (10,000× g for 5 min). Sample supernatants (100 and 400 μL, respectively) were hydrolyzed by incubation with 300 UI (plasma) and 1500 UI (urine) of β-glucuronidase from Helix pomatia for 2 h at 37 °C, clarified with 200 μL of MeOH/HCl (0.2 M) and centrifuged at 10,000× g for 5 min. An SPE clean-up step, by using Strata X-AW cartridges (Phenomenex, Torrance, CA, USA) mounted on VacElut Cartridge Manifolds (Agilent Technologies, Inc., Santa Clara, CA, USA), was carried out. Cartridges were conditioned and equilibrated with 2 mL of MeOH/HCOOH (98:2, v/v) and 2 mL of water/HCOOH (98:2, v/v), respectively. After sample loading, SPE cartridges were washed with water/HCOOH (98:2, v/v). Analytes were eluted with 1 mL of MeOH/HCOOH (98:2, v/v) and dried by a gentle stream of nitrogen at room temperature. Extracts were recovered with 200 μL of the mobile phase used for the LC-DAD-ESI-MS/MS analyses (see Section 2.4). Quality control samples were prepared by spiking DOPET and metabolites (DOPAC, HVA, and MOPET) in baseline control plasma and urine samples at two different concentrations (1.2 ng/mL and 5.3 ng/mL) correspondent to the limit of quantification (LOQ) in plasma and urine samples, respectively. Both precision (CV < 10%) and accuracy (≥90%) recorded in three replicates were acceptable according to ICH and FDA guidelines.
(§3) Plasma and urinary DOPET and metabolites were analyzed by LC-DAD-ESI-MS/MS (Agilent Technologies, Inc., Santa Clara, CA, USA). Chromatographic analysis was carried out by a Luna Omega PS C18 column (150 mm × 2.1 mm, 5 µm; Phenomenex, Torrance, CA, USA) at 25 °C by using a mobile phase consisting of 0.1% HCOOH (Solvent A) and methanol (Solvent B) according to the following elution program: 0–18 min, 5% B; 18–21 min, 95% B; 21–30 min, 5% B; 30–35 min, 5%. The injection volume was 10 µL, and the flow rate was 0.4 mL/min. The UV–Vis spectra were recorded, ranging from 190 to 400 nm, and chromatograms were acquired at 280 nm. […]

[3] = parameters: method as in PMID 10692578; details: 24 h; enriched olive oils, 6 healthy male volunteers; cited from earlier work
[4] = parameters: method as in PMID 12765992; details: 25 mL of EVOO, 6 healthy volunteers; cited from earlier work
[5] = parameters: method as in PMID 28452954; details: in vitro; cited from earlier work
[6] = parameters: method as in doi:10.1016/j.jff.2016.02.046; details: cited from earlier work
[7] = parameters: method as in PMID 17870451; details: 100 g of olives containing 76.73 mg of DOPET, 7 healthy men; cited from earlier work
[8] = parameters: method as in PMID 32524230; details: 5 mg DOPET conveyed in EVOO, 20 volunteers; cited from earlier work
[9] = parameters: method as in PMID 23766098; details: cited from earlier work; for Cmax: olive leaf extract
[10] = Plasma pharmacokinetics of free DOPET in healthy volunteers after oral enteric-coated capsules (DOPET in EVOO), non-compartmental analysis; format: in vivo, human
Method: as §1
Blood samples were collected into 10 mL test tubes containing EDTA from a subcutaneous vein using a permanent catheter inserted into the forearm at baseline (T0) and 45, 90, 123, 150, 184, 247, 386, and 440 min. Samples were centrifuged at 1700× g for 10 min at 4 °C and the obtained plasma was aliquoted into test tubes containing citric acid (2 M, 10% v/v).
as §2
as §3, with “nm. The experimental parameters of the mass spectrometer (ion trap, model 6320, Agilent Technologies, Santa Clara, CA, USA) equipped with an electrospray ionization interface operating in the negative (ESI−) and positive (ESI+) ionization mode were set as follows: 3.5 kV capillary voltage, 40 psi nebulizer (N2) pressure, 350 °C drying gas temperature, 9 L/min drying gas flow, and 40 V skimmer voltage. The acquisition was carried out in full-scan mode (90–1000 m/z).” for “nm.”

[11] = parameters: method as in PMID 20045462; details: single oral dose 2.5 mg/kg b.w., 10 subjects; cited from earlier work
[12] = human, mean, n = 20, free DOPET in plasma, oral 15 mg DOPET (2 cps)

SMILES: C/C=C1/[C@H](O[C@@H]2O[C@H](CO)[C@@H](O)[C@H](O)[C@H]2O)OC=C(C(=O)OC)[C@H]1CC(=O)OCCc1ccc(O)c(O)c1 [oleuropein]
detection in urine samples [1]: neither oleuropein nor DOPET was detected

cumulative metabolites distribution in urine, mean relative area percentage with respect to all identified and unidentified compounds [2]: 13.48%
mean peak in urine [2]: 9.93 µmol
SMILES: O=C(O)Cc1ccc(O)c(O)c1 [DOPAC, 3,4-dihydroxyphenylacetic acid]

SMILES: OCCc1ccc(O)cc1 [tyrosol]
urine excretion with respect to the dose administered [3]: 21–24%

cumulative metabolites distribution in urine, mean relative area percentage with respect to all identified and unidentified compounds [2]: 8.49%
mean peak in urine [2]: 4.67 µmol
bioavailability compared with the literature ([10]; enteric-coated capsule, DOPET in EVOO, versus previous results at the same dose administered): about 2.5 times
Cmax ([10]; human, plasma, po, 15 mg, mean, n = 20, free DOPET in plasma, oral 15 mg DOPET (2 cps), read-out: Cmax): 5.5 ng/mL
Tmax [10, 12]: 2.05 h
half-life [10, 12]: 2.51 h
AUCextrap_pred ([10]; mean, n = 20, fraction of total AUC due to extrapolated AUC, oral 15 mg DOPET): 18.23%
Cmax ([10]; mean, n = 20, free DOPET in plasma, oral 15 mg DOPET (2 cps)): 5.48 ng/mL
SMILES: OCCc1ccc(O)c(O)c1 [DOPET, 3,4-dihydroxyphenyl ethanol]
urine excretion with respect to the dose administered [3]: 29–40%
Cmax [4]: 25.83 ng/mL
Tmax [4]: 0.967 h
genotoxicity or mutagenicity [5]: does not exhibit any genotoxicity or mutagenicity
detection in urine samples [1]: neither oleuropein nor DOPET was detected
urine levels of DOPET and its metabolites, share of the DOPET administered ([6]; 5 mg of DOPET/day for one week): 21%
urine levels of DOPET and its metabolites, share of the DOPET administered ([6]; 25 mg of DOPET/day for one week): 28%
forms of DOPET excreted in urine ([6]; 5 or 25 mg of DOPET/day for one week): 0–0.02%
plasma concentration at Cmax [7]: 3150 ng/mL
time to Cmax [7]: 1 h
Cmax [8]: 3.79 ng/mL
time to Cmax [8]: 30 min
Cmax ([9]; capsule matrix): 56 ng/mL
Cmax ([9]; liquid matrix): 59 ng/mL
decrease of Tmax ([9]; passing from encapsulated to the liquid formulation): about 30 min
Cmax [11]: 1110 nM
time of maximum plasma concentration [11]: 13 min

cumulative metabolites distribution in urine, mean relative area percentage with respect to all identified and unidentified compounds [2]: 0.94%
mean peak in urine [2]: 0.44 µmol
SMILES: COc1cc(CCO)ccc1O [MOPET, 4-hydroxy-3-methoxyphenethanol]

SMILES: COc1cc(CC(=O)O)ccc1O [HVA, homovanillic acid]
mean peak in urine [2]: 18.39 µmol
